≈ marks a conversion by molar mass, not a printed value.
Conditions: buffer; pH 7.4; 200.0 µM

Row | SMILES | solubility kinetic [µg/mL]
1 | Cc1ccc(NC(=O)Cc2c(F)cccc2Cl)cc1S(=O)(=O)N1CCOCC1 | 2 (≈ 4.68 µM)
2 | CC(=O)Nc1sc(C)c(C)c1C(=O)OCCOc1ccccc1 | 1.6 (≈ 4.8 µM)
3 | COc1ccc(OC)c(NC(=O)CCn2ccnc2)c1 | 38.9 (≈ 141 µM)
4 | Cc1noc(C)c1COC(=O)CNC(=O)c1cccc(F)c1 | 45.9 (≈ 150 µM)
5 | CCN(CCO)C(=S)Nc1cc(S(=O)(=O)N(C)C)ccc1C | > 51.8
6 | COc1ccc(CC(=O)Oc2ccccc2[N+](=O)[O-])cc1 | 14.2 (≈ 49.4 µM)
7 | C=C(C)C(=O)OCC(=O)NCc1ccccc1 | 27.2 (≈ 117 µM)
8 | COC(=O)c1ccc(CN2C(=O)NC(CC(C)C)C2=O)cc1 (stereo not given) | > 45.7
9 | Cc1cc(C)cc(N2CC(O)Cn3c2nc2c3c(=O)[nH]c(=O)n2C)c1 (stereo not given) | 34.3 (≈ 100 µM)
10 | COc1ccc(NC(=O)c2cc3ccccc3o2)cc1S(=O)(=O)N1CCCCC1 | 9.2 (≈ 22.2 µM)
11 | O=C(NCc1ccc(F)cc1)C(Cc1ccccc1)n1cccc1 (stereo not given) | 32.2 (≈ 99.9 µM)
12 | Fc1ccc(OCCOCCOc2cccc3[nH]ccc23)cc1 | 16.3 (≈ 51.7 µM)
13 | CCOC(=O)c1c(O)c(O)c(C(=O)OCC)n1-c1ccccc1 | > 47.9
14 | S=C(NCCCN1CCOCC1)Nc1cccc(Cl)c1 | > 47.1
15 | Cc1ccc(C(=O)NCC(=O)NC2CCCCCC2)cc1 | 21.1 (≈ 73.2 µM)
16 | CCC(=O)c1ccc(OCC(=O)NC2CCCC2)cc1 | > 41.3
17 | Cc1cc(C)cc(Oc2coc3c(CN(C)C)c(O)ccc3c2=O)c1 | > 50.9
18 | O=C1CCCC(=O)C1C1c2ccccc2CCN1C(=O)CCl (stereo not given) | > 48
19 | Cc1csc(=O)n1CC(=O)Nc1ccc(Cl)c(Cl)c1 | 9.7 (≈ 30.6 µM)
20 | Cl.c1cncc(CNCc2ccco2)c1 | > 33.7

Row | SMILES | solubility kinetic [µg/mL]
21 | CCOc1ccc(NC(=O)CCS(=O)(=O)c2ccc(C)cc2)cc1 | > 52.1
22 | O=C(NCc1ccc(Cl)cc1Cl)Nc1ccccc1 | 0.4 (≈ 1.36 µM)
23 | Cc1cc(C)c2c(CC(=O)NCCc3ccccc3)coc2c1 | < 0.7
24 | Nc1ncnc(Nc2ccccc2)n1 | > 28.1
25 | Cc1ccc(NC(=O)CNC(=O)c2cccc(C)c2)nc1 | > 42.5
26 | O=C(c1ccc([N+](=O)[O-])o1)N1CCc2ccccc21 | 2.6 (≈ 10.1 µM)
27 | CC(=O)Nc1ccc(C(=O)OCC(=O)N2CCCC2)cc1 | > 43.5
28 | CC(=O)CSc1ccc(-c2nc3ccccc3[nH]2)cn1 | > 42.5
29 | CNC(=O)O/N=C(\N)Cc1csc2ccccc12 | 39.2 (≈ 149 µM)
30 | Cc1ccccc1-n1c(=O)n(Cc2ccccc2)c(=O)c2[nH]cnc21 | > 49.9
31 | Cc1ccc(CC2C(=O)N(c3cc(Cl)ccn3)C(=O)C2C)cc1 (stereo not given) | > 49.3
32 | CCN(CC)CCOc1ccc(/C(=C(/Cl)c2ccccc2)c2ccccc2)cc1 | 1.5 (≈ 3.69 µM)
33 | O=C(NCCCO)C(=O)Nc1cc2c3c(c1)CCN3C(=O)CC2 | > 47.6
34 | Cc1cccc(C)c1OCC(=O)Nc1cccc(C(=O)O)c1 | > 44.9
35 | C=CCN(C(=O)Nc1ccc2c(c1)nc(C)n2C)c1ccccc1 | > 48.1
36 | COc1cc(/C=C(/C#N)C(=O)NCc2ccccc2)cc(OC)c1OC | 20 (≈ 56.8 µM)
37 | NC(=O)Cn1cc(C(=O)COc2ccccc2)c2ccccc21 | 14.6 (≈ 47.4 µM)
38 | O=C(COC(=O)Cn1cnc2ccccc21)Nc1ccc(F)c(F)c1 | > 51.8
39 | O=C(CCc1ccncc1)N1CCCC(Nc2ccc(F)cc2)C1 (stereo not given) | 45.6 (≈ 139 µM)
40 | CC(CNC(=O)c1ccccc1Cl)c1ccccc1 (stereo not given) | 36.6 (≈ 134 µM)

Row | SMILES | solubility kinetic [µg/mL]
41 | O=C1N(c2ccccc2)C[C@@H]2C[C@@H](c3cccs3)N3CCC[C@@]123 | 41.8 (≈ 129 µM)
42 | CCCC(=O)Oc1cccc(C2NC(=O)c3ccccc3O2)c1 (stereo not given) | 18.8 (≈ 60.4 µM)
43 | O=C(Nc1ccncc1)c1ccc2ccccc2c1 | 16.5 (≈ 66.5 µM)
44 | COc1ccc2nc(NC(=O)Nc3ccccc3OC)sc2c1 | 1.4 (≈ 4.25 µM)
45 | CCOC(=O)CC1COCCN1Cc1cn(C)nc1-c1ccccc1F (stereo not given) | > 54.2
46 | CC(C)N(Cc1nc(-c2ccccc2)no1)C(=O)C(Cl)(Cl)Cl | 5.9 (≈ 16.3 µM)
47 | CC1CCc2ccccc2N1C(=N)N(C)C.Cl (stereo not given) | > 38.1
48 | O=C(NCCCc1ccccc1)C1CC1 | > 30.5
49 | CCc1ccc(N2CC(C)Cn3c2nc2c3c(=O)[nH]c(=O)n2C)cc1 (stereo not given) | 7.3 (≈ 21.5 µM)
50 | O=C(NCCN1CCOCC1)NC1(C(F)(F)F)Oc2ccc(Cl)cc2O1 (stereo not given) | > 59.4
51 | CC(=O)Nc1ccc(S(=O)(=O)Nc2ccc3ccccc3n2)cc1 | 14.2 (≈ 41.6 µM)
52 | CC(C)(C)c1ccccc1NC(=O)NC1CCN(Cc2c(F)cccc2Cl)CC1 | 0.5 (≈ 1.2 µM)
53 | Cc1nc(Cl)sc1C(=O)Nc1ccc(C(F)(F)F)cc1 | 6.6 (≈ 20.6 µM)
54 | O=C(O)C1C2CCC(O2)C1C(=O)Nc1ccc(OC(F)F)cc1 (stereo not given) | 44.3 (≈ 135 µM)
55 | Cc1ccc(C(=O)OCC(=O)c2ccc[nH]2)s1 | > 37.4
56 | CC(NC(=O)COC(=O)c1ccc2c(c1)OCCO2)c1ccccc1 (stereo not given) | 11.4 (≈ 33.4 µM)
57 | CC(Cl)C(=O)c1c[nH]c2ccccc12 (stereo not given) | 21.4 (≈ 103 µM)
58 | CN1CCN(c2ccc(C(F)(F)F)cc2NC(=O)c2ccco2)CC1 | > 53
59 | CC1CCCC(C)N1C(=O)CSc1nc(N)cc(N)n1 (stereo not given) | > 44.3
60 | COCCNC(=S)Nc1ccc2[nH]c(=O)[nH]c2c1 | > 39.9

From PubChem BioAssay AID1996
